From patent US20240207282A1, “METHOD OF INCREASING CHAPERONE MEDIATED AUTOPHAGY BY STABILIZING THE INTERACTION OF RETINOIC ACID RECEPTOR-ALPHA AND AN INHIBITOR” (ALBERT EINSTEIN COLLEGE OF MEDICINE, priority 2021, published 2024)

Assays:
[1] = system: NIH3T3; test: Intracellular proteolysis of long half-life proteins (3H-leucine); format: cell-based, mouse; conditions: 10 μM; duration of increase after addition
Description: Proteolysis was calculated from aliquots of the medium taken at different times and precipitated in trichloroacetic acid, as the amount of acid-precipitable radioactivity transformed to acid-soluble radioactivity at each time.

[2] = system: human cells; test: CMA activity, KFERQ-PS-Dendra reporter in human cells; format: cell-based
Description: Cells: NIH3T3 mouse fibroblasts and the N2a neuroblastoma cell line were obtained from the American Type Culture Collection and were validated by genomic PCR. Primary human fibroblasts (GM01651) were from Coriell Repository. All the cells lines were tested for mycoplasma contamination using DNA staining protocol with Hoechst 33258 dye. Knock-down of NCoR1 was done using lentiviral mediated shRNA (SHCLNG-NM_011308) from the Sigma Mission library following standard procedures. Efficiency of knock-down was tested by immunoblot. Cell viability was measured using the CellTiter-Blue kit (Promega) 24 h after the addition of the different stressors according to manufacturer's instructions.
CMA activity: Cells were transduced with lentivirus carrying the KFERQ-PS-Dendra reporter as before. Cells were photoactivated by exposure to a 3.5 mA (current constant) light emitting diode (LED: Norlux, 405 nm) for 3 min and then plated in glass-bottom 96 well plates. At the desired times, cells were fixed with 4% PFA and imaged using high-content microscopy (Operetta system, Perkin Elmer). Images were quantified using the manufacturer's software in a minimum of 1,200 cells in 9 independent fields per well. […] To avoid con-funding effects for drug-induced changes in cell volume or adherence to the plate that could bring a fraction of the cells per field outside of focus, we set a threshold to count only cells that have at least 1/10 of the average number of […] detected in the untreated wells for each cell type (3-4 puncta/cell in the case of NIH3T3 and N2a cells and 5 puncta/cell in primary human fibroblasts). […] Slices were mounted in DAPI-Fluoromount-G to highlight the cell nucleus and allow quantification of puncta per cell. Images were acquired in x-y-z planes with an Axiovert 200 fluorescence microscope (Carl Zeiss Ltd) with a ×63 objective and 1.4 numerical aperture, mounted with an ApoTome.2 slider or with a Confocal microscope (TCS SP5; Leica) using an HCX Plan Apo CS×63.0 1.40 NA oil objective and the Leica Application Suite X (LAS X).

[3] = system: CMA network; test: Comparative transcriptomic analysis / qPCR of CMA network; format: cell-based, mouse; conditions: for changes in the transcriptome: treated cells
Description: mRNA-qPCR: RNA was extracted from individual retinas. Total RNA from retinas was extracted using TRIzol Reagent (Invitrogen), and reverse transcription performed using the High-Capacity cDNA Reverse Transcription Kit (Applied Biosystems) according to the manufacturer's instructions. Quantitative real-time PCR was performed in a Light Cycler 480 Instrument (Roche) with Taqman Universal PCR Master Mix using Taqman assays (Life Tech-nologies). The following probes were used: Mm01184405_m1 (rhodopsin), F-5′-CTTAGCTTCTGGGATGC CCC-3′, R-5′-[…]-3′ (lamp2a) F-5′-AA GGACTCCTA TAGTGGG TGACGA-3′, R-5′-[…]-3′ (mouse β-actin).
Microarray: Total RNA of the treated cells was extracted using TRIzol (Invitrogen) and purified with RNeasy chromatography (Qiagen). Cy3-labeled RNA (0.6 μg) from each condition were hybridized to Agilent Mouse 8×60K. Data were processed using the oligo package and normalized using Robust Multiarray Average (RMA) method. Gene set was filtered to remove genes without Entrez or GO annotation (21912 genes out of 55682) and genes with an […]. The full microarray Gomez-Sintes et al. raw data will be deposited in GEO upon acceptance of the manuscript. Pathway analysis was performed using the STRING database ([…]).
CMA index was calculated using data set from Ly (J. Proteome Research (2016) 15: 1350-1359), Gao (2020), and Lane (2020). Briefly, each element of the CMA network was attributed a weight. As LAMP-2A is the rate limiting component of CMA, it was given a weight of 2. Every other element received a weight of 1. Then, every element was attributed direction score that is +1 or −1 based on the known effect of a given element on CMA activity. The score was then calculated as the weighted/directed average of expression counts of every element of the CMA network.

[4] = biological target: T1, cellular RARα and NCoR1 (Mus musculus, UniProt P11416); test: Streptavidin pulldown of RARα and NCoR1 with biotinylated CA compound; format: binding; conditions: NIH3T3, 10 μM, 24 h
T1 construct: endogenous in cells; host or cells: NIH3T3

[5] = Pharmacokinetics in mice (plasma and brain); format: in vivo, mouse; conditions: male, ICR (CD-1), mouse, po, administered orally
Description: ICR (CD-1) male mice were fasted at least three hours and water was available ad libitum before the study. Animals were housed in a controlled environment, target conditions: temperature 18 to 29° C., relative humidity 30 to 70%. Temperature and relative humidity was monitored daily. An electronic time controlled lighting system was used to provide a 12 hr light/12 hr dark cycle. 3 mice for each indicated time point were administered 30 mg/Kg CA39 or CA77 by oral gavage or 1 mg/Kg CA39 or CA77 by intravenous injection using 30% PEG-400, 65% D5W (5% dextrose in water), 5% Tween-80 vehicle. Mice were sacrificed, and brain samples were harvested at 0 hr, 0.25 hr, 0.5 hr, 1 hr, 2 hr, 4 hr, 8 hr, 24 hr, and analyzed for CA39 or CA77 levels using LC-MS/MS. Pharmacokinetics parameters were calculated using Phoenix WinNonlin 6.3. Experiments performed at SIMM-SERVIER joint Biopharmacy Laboratory.

[6] = Chronic toxicity in mice (blood count, histopathology); format: in vivo; conditions: chronic (5 months) daily oral administration
Description: Liver, lung and kidneys from CA-treated animals were dissected and fixed in 1% PFA overnight and paraffin embedded. Tissues were sectioned, stained with hematoxylin and eosin (H&E) and analyzed by an expert pathologist, blind to the treatment groups, to score for possible presence of toxicity in these organs. Scoring 1-6 was used assigning 6 to those observations clinically relevant. Individual scoring per parameter and per organ and average scoring per organ were performed. Blood cell count in the groups of mice administered vehicle or CA was analyzed in tail blood drawn monthly and at the moment of tissue dissection using an Oxford Science Forcyte Blood Analysis Unit.

T1 sequence (P11416 whole entry): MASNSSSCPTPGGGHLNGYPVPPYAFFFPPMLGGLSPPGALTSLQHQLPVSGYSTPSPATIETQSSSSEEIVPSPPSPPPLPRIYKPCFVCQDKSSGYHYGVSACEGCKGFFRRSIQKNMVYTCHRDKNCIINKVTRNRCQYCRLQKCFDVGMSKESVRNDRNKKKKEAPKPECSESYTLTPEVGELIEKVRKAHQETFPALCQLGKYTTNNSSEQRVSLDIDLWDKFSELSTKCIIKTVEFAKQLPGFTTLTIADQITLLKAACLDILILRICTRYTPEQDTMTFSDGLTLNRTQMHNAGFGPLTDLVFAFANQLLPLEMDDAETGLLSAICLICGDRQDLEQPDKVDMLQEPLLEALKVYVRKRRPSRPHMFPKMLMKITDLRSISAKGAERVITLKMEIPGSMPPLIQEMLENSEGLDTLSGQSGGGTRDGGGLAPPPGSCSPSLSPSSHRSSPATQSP
T1 sequence (Q60974 whole entry partner): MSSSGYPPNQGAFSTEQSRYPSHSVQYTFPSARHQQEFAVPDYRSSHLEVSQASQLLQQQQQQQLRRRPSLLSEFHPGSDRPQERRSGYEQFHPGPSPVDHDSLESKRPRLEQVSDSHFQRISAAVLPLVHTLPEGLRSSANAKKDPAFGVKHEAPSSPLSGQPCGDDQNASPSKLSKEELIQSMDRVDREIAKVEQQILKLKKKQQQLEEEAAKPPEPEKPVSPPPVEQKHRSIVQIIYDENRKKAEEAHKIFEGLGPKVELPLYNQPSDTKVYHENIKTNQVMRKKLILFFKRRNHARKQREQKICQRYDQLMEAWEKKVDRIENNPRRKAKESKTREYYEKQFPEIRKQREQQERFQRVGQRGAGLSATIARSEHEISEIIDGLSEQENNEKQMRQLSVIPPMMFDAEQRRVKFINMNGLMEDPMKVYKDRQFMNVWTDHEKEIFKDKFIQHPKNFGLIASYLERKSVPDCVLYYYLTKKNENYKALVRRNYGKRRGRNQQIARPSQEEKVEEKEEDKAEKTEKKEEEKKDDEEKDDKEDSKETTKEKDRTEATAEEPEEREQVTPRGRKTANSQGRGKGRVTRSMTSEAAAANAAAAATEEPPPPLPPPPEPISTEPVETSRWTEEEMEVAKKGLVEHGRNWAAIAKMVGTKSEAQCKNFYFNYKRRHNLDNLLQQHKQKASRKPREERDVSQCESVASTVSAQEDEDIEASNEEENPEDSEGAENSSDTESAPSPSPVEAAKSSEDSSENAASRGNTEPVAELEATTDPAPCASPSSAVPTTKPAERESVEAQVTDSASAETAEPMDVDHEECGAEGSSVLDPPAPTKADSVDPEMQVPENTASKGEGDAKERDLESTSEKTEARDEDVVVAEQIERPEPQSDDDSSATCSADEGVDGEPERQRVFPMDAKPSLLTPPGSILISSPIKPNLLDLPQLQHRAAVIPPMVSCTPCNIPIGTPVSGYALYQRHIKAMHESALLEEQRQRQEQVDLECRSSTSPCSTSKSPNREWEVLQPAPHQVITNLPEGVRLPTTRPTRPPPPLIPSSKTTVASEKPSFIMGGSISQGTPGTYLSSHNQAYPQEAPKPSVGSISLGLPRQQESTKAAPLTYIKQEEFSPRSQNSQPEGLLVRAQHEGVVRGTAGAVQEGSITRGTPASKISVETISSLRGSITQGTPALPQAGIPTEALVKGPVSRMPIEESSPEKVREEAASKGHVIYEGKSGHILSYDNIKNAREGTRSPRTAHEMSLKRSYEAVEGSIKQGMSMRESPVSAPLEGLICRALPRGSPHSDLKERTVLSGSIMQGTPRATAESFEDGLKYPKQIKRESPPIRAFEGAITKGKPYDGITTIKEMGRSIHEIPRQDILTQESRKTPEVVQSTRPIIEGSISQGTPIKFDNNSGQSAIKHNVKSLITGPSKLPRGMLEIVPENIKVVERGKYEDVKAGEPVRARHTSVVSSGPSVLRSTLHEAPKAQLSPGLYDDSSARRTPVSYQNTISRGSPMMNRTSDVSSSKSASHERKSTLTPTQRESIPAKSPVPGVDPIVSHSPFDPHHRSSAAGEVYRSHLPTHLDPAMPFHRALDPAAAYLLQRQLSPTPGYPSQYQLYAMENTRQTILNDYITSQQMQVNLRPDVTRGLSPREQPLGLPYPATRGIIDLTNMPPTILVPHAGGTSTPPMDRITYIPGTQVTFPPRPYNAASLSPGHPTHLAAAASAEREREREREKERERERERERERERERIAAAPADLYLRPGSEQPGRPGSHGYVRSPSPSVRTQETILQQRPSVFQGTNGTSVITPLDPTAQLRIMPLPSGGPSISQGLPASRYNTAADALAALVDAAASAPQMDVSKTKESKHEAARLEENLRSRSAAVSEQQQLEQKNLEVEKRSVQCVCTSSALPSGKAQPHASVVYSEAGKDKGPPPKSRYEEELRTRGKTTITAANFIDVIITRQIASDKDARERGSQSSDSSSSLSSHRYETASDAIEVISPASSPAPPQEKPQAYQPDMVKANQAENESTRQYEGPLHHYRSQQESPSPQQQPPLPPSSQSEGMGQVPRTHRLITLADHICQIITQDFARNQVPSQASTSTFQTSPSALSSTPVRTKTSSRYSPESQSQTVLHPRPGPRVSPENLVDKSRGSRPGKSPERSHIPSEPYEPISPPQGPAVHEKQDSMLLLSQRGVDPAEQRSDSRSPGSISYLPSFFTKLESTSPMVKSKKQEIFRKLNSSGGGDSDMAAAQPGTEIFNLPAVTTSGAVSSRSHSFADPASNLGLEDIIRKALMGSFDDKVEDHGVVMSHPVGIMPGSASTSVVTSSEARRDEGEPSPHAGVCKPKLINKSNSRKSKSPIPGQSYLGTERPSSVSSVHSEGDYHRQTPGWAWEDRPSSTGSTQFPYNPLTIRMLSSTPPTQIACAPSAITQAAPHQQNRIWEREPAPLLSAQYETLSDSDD

Structure (SMILES): Cc1ccc(C2=Nc3ccc(Cl)cc3OC2)cc1 [AR7, reference compound]
- intracellular rates of degradation of long-lived proteins [1]: sustained only for the first 12 h after addition of the compound
- CMA activation [2]: very discrete
- number of CMA network components with changed expression ([3]; of the 17 currently accepted components): 8
- changes in the transcriptome [3]: only induced changes in the expression of a discrete fraction of genes

Structure (SMILES): O=C(CCCC[C@H]1SCC2NC(=O)NC21)NCCCOCCOCCOCCCNC(=O)c1ccc(C2=Nc3ccc(Cl)cc3OC2)cc1 (stereo partly drawn) [biotinylated CA compound]
- co-immunoprecipitation of cellular RARα and NCoR1 [4]: could be co-immunoprecipitated

Structure (SMILES): CC(=O)Nc1ccc(-c2cnc3cc(Cl)ccc3n2)cc1 [CA77.1]
- Kp ([5]; brain/plasma, read-out: AUC brain/plasma): 5.73
- half-life ([5]; plasma, read-out: Plasma half-life (converted)): 3 h
- peripheral blood or major organ toxicity [6]: lack of peripheral blood or major organ (liver, lung, kidney) toxicity

Structure (SMILES): CC1(C)CC=C(c2cnc3ccccc3c2)c2cc(C(=O)Nc3ccc(C(=O)O)cc3)ccc21 [BMS614]
- changes in the transcriptome [3]: marked changes in the transcriptome
